Values belong to the compound of their own block, whether it stands above or below them.
Experiments:
[1] = molecular target: Serine/threonine-protein kinase Sgk1 (Homo sapiens) (UniProt O00141); test: Inhibition of SGK1 (unknown origin) at 0.19 uM relative to control
[2] = molecular target: Mitogen-activated protein kinase 14 (Homo sapiens) (UniProt Q16539); test: Inhibition of p38a (unknown origin) at 0.19 uM relative to control
[3] = molecular target: Tyrosine-protein kinase Fes/Fps (Homo sapiens) (UniProt P07332); test: Inhibition of FES (unknown origin) at 0.19 uM relative to control
[4] = molecular target: Casein kinase I isoform alpha (Homo sapiens) (UniProt P48729); test: Inhibition of CSNK1A1 (unknown origin) at 0.19 uM relative to control
[5] = molecular target: Death-associated protein kinase 3 (Homo sapiens) (UniProt O43293); test: Inhibition of ZIPK (unknown origin) at 0.19 uM relative to control
[6] = molecular target: Tyrosine-protein kinase Lck (Homo sapiens) (UniProt P06239); test: Inhibition of LCK (unknown origin) at 0.19 uM relative to control
Sequence of Tyrosine-protein kinase Lck (Homo sapiens) (P06239 2-509 limits assumed): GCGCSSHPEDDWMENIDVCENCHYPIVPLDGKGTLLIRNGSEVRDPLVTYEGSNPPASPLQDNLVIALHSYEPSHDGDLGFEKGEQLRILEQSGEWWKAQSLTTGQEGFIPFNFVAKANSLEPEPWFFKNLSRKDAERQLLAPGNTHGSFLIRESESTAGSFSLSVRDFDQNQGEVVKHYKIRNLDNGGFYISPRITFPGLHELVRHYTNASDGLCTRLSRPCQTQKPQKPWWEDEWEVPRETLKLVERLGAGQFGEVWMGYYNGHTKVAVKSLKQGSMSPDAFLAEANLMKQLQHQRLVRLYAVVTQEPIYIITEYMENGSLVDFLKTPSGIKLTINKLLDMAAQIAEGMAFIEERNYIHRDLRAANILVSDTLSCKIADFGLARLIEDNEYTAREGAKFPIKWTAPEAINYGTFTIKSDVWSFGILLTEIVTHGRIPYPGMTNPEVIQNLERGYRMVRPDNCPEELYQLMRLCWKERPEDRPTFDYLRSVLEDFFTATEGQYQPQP

[7] = molecular target: T1, Mitogen-activated protein kinase 12 (Homo sapiens) (UniProt P53778); test: Inhibition of p38-gamma (unknown origin) at 0.19 uM relative to control
T1 sequence (whole entry): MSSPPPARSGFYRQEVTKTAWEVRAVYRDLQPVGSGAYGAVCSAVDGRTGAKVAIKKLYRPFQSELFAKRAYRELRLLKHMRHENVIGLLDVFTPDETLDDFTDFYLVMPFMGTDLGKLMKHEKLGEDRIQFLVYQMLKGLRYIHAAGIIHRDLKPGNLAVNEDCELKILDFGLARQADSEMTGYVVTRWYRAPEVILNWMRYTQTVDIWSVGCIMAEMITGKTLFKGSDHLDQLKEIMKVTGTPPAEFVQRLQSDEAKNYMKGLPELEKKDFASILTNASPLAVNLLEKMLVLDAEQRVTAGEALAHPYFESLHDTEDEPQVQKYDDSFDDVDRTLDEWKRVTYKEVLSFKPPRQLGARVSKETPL

[8] = molecular target: Ribosomal protein S6 kinase alpha-4 (Homo sapiens) (UniProt O75676); test: Inhibition of MSK2 (unknown origin) at 0.19 uM relative to control
Sequence of Ribosomal protein S6 kinase alpha-4 (Homo sapiens) (O75676 whole entry, looked up): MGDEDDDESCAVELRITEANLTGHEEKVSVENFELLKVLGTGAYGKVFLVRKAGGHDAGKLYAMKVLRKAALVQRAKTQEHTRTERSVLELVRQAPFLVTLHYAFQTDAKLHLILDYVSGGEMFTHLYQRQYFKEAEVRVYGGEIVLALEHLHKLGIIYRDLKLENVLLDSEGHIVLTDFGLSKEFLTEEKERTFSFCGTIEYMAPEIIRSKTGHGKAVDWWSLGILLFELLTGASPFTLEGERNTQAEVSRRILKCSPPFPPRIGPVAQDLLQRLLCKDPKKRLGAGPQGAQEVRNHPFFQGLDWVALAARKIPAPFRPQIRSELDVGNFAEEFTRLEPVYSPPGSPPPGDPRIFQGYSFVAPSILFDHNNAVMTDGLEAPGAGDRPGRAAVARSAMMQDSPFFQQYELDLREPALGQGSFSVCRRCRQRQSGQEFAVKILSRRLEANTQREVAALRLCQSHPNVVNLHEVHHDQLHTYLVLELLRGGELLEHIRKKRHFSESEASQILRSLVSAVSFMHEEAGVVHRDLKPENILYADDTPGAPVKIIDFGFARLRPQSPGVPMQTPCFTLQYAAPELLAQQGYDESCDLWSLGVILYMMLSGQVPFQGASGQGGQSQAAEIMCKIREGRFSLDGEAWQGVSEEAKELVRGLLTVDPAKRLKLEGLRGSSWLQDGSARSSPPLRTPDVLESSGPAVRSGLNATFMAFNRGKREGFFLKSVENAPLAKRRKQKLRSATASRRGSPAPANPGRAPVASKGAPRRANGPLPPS

[9] = molecular target: Tyrosine-protein kinase Fgr (Homo sapiens) (UniProt P09769); test: Inhibition of FGR (unknown origin) at 0.19 uM relative to control
[10] = molecular target: RAC-alpha serine/threonine-protein kinase (Homo sapiens) (UniProt P31749); test: Inhibition of AKT1 (unknown origin) at 0.19 uM relative to control
[11] = molecular target: Ribosomal protein S6 kinase alpha-5 (Homo sapiens) (UniProt O75582); test: Inhibition of MSK1 (unknown origin) at 0.19 uM relative to control
[12] = molecular target: Maternal embryonic leucine zipper kinase (Homo sapiens) (UniProt Q14680); test: Inhibition of MELK (unknown origin) at 0.19 uM relative to control
[13] = molecular target: Macrophage colony-stimulating factor 1 receptor (Homo sapiens) (UniProt P07333); test: Inhibition of FMS (unknown origin) at 0.19 uM relative to control
[14] = molecular target: Casein kinase I isoform epsilon (Homo sapiens) (UniProt P49674); test: Inhibition of CK1-epsilon (unknown origin) at 0.19 uM relative to control
Sequence of Casein kinase I isoform epsilon (Homo sapiens) (P49674 whole entry, looked up, canonical isoform): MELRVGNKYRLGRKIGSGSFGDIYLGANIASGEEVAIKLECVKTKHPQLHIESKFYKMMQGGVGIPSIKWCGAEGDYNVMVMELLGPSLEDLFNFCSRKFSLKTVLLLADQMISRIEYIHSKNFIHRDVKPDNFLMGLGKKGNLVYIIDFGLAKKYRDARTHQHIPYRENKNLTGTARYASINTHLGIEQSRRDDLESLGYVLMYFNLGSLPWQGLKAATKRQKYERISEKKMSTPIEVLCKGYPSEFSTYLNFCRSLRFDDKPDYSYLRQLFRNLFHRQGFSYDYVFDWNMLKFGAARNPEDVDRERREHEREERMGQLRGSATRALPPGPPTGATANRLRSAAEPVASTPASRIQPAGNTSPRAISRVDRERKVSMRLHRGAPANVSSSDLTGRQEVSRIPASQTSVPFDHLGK

[15] = molecular target: Ephrin type-B receptor 3 (Homo sapiens) (UniProt P54753); test: Inhibition of EPHB3 (unknown origin) at 0.19 uM relative to control
[16] = molecular target: Platelet-derived growth factor receptor alpha (Homo sapiens) (UniProt P16234); test: Inhibition of PDGFR alpha (unknown origin) at 0.164 uM relative to control
[17] = molecular target: Tyrosine-protein kinase SYK (Homo sapiens) (UniProt P43405); test: Inhibition of SYK (unknown origin) at 0.164 uM relative to control
[18] = molecular target: Interleukin-1 receptor-associated kinase 1 (Homo sapiens) (UniProt P51617); test: Inhibition of IRAK1 (unknown origin) at 0.164 uM relative to control
Sequence of Interleukin-1 receptor-associated kinase 1 (Homo sapiens) (P51617 whole entry, looked up): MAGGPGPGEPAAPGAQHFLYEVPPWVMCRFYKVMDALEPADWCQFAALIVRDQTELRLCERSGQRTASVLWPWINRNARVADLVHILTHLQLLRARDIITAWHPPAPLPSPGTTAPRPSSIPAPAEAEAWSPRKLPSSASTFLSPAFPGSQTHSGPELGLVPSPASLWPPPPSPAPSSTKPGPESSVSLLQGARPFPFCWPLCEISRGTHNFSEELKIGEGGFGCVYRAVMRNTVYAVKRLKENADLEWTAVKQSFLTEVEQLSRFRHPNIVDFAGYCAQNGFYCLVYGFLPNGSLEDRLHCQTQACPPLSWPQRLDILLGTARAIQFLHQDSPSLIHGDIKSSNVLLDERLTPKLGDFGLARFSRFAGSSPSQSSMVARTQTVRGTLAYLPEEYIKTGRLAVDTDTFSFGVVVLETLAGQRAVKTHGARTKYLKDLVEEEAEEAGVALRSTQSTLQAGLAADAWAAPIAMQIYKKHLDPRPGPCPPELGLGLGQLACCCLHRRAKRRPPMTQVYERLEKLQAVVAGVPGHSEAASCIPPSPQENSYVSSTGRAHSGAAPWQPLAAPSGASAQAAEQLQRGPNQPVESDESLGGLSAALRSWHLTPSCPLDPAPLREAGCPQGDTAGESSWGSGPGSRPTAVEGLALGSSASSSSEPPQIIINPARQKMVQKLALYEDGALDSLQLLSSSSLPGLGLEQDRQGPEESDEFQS

[19] = molecular target: Dual specificity tyrosine-phosphorylation-regulated kinase 3 (Homo sapiens) (UniProt O43781); test: Inhibition of DYRK3 (unknown origin) at 0.164 uM relative to control
Sequence of Dual specificity tyrosine-phosphorylation-regulated kinase 3 (Homo sapiens) (O43781 whole entry, canonical isoform): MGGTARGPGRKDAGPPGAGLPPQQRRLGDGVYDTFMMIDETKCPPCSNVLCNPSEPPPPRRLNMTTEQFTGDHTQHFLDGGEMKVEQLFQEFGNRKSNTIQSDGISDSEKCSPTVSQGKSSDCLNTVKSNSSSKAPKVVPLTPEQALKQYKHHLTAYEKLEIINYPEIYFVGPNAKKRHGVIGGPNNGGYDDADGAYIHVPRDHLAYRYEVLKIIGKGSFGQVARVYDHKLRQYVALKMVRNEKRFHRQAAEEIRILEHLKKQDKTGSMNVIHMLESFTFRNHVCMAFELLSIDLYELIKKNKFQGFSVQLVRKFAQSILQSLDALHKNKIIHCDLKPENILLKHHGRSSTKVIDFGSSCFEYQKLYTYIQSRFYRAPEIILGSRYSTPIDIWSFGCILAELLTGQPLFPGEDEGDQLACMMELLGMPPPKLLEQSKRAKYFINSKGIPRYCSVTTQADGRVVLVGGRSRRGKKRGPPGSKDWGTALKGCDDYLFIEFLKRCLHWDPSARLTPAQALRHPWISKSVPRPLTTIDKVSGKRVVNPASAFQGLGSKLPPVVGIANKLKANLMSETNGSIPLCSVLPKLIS

[20] = molecular target: Casein kinase I isoform epsilon (Homo sapiens) (UniProt P49674); test: Inhibition of CK1-epsilon (unknown origin) at 0.164 uM relative to control
[21] = molecular target: RAC-beta serine/threonine-protein kinase (Homo sapiens) (UniProt P31751); test: Inhibition of AKT2 (unknown origin) at 0.164 uM relative to control
Sequence of RAC-beta serine/threonine-protein kinase (Homo sapiens) (P31751 whole entry): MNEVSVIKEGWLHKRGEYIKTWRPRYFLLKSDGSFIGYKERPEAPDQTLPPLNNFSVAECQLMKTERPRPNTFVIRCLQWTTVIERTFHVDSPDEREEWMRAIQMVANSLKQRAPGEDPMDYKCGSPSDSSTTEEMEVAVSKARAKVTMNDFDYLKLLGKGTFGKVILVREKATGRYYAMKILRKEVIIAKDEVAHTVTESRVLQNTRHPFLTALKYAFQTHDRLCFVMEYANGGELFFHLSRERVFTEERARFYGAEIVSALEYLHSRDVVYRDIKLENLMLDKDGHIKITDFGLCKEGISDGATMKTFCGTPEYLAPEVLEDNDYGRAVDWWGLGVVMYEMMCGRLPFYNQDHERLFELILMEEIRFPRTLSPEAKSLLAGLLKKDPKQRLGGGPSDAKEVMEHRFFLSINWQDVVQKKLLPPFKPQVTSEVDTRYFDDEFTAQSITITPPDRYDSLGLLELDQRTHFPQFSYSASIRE

[22] = molecular target: T2, Protein kinase C iota type (Homo sapiens) (UniProt P41743); test: Inhibition of PKC-iota (unknown origin) at 0.164 uM relative to control
T2 sequence (whole entry): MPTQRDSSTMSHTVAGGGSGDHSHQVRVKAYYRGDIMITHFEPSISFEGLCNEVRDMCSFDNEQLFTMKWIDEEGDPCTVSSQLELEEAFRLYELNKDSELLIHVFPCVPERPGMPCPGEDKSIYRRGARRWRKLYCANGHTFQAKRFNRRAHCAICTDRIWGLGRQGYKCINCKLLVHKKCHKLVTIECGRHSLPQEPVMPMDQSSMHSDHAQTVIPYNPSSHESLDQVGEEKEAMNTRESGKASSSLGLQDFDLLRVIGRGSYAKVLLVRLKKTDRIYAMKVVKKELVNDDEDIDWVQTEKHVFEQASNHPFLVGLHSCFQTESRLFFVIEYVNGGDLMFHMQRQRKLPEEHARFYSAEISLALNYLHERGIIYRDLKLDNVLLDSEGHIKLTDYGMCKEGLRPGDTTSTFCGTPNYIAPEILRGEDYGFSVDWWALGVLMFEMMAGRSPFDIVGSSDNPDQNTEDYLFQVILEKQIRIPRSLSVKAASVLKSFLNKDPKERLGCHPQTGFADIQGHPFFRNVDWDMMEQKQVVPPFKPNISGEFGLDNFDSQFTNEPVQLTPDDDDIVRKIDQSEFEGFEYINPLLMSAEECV

[23] = molecular target: Ribosomal protein S6 kinase alpha-3 (Homo sapiens) (UniProt P51812); test: Inhibition of RSK2 (unknown origin) at 0.164 uM relative to control
[24] = molecular target: Rho-associated protein kinase 1 (Homo sapiens) (UniProt Q13464); test: Inhibition of ROCK1 (unknown origin) at 0.164 uM relative to control
Sequence of Rho-associated protein kinase 1 (Homo sapiens) (Q13464 2-1354 limits assumed): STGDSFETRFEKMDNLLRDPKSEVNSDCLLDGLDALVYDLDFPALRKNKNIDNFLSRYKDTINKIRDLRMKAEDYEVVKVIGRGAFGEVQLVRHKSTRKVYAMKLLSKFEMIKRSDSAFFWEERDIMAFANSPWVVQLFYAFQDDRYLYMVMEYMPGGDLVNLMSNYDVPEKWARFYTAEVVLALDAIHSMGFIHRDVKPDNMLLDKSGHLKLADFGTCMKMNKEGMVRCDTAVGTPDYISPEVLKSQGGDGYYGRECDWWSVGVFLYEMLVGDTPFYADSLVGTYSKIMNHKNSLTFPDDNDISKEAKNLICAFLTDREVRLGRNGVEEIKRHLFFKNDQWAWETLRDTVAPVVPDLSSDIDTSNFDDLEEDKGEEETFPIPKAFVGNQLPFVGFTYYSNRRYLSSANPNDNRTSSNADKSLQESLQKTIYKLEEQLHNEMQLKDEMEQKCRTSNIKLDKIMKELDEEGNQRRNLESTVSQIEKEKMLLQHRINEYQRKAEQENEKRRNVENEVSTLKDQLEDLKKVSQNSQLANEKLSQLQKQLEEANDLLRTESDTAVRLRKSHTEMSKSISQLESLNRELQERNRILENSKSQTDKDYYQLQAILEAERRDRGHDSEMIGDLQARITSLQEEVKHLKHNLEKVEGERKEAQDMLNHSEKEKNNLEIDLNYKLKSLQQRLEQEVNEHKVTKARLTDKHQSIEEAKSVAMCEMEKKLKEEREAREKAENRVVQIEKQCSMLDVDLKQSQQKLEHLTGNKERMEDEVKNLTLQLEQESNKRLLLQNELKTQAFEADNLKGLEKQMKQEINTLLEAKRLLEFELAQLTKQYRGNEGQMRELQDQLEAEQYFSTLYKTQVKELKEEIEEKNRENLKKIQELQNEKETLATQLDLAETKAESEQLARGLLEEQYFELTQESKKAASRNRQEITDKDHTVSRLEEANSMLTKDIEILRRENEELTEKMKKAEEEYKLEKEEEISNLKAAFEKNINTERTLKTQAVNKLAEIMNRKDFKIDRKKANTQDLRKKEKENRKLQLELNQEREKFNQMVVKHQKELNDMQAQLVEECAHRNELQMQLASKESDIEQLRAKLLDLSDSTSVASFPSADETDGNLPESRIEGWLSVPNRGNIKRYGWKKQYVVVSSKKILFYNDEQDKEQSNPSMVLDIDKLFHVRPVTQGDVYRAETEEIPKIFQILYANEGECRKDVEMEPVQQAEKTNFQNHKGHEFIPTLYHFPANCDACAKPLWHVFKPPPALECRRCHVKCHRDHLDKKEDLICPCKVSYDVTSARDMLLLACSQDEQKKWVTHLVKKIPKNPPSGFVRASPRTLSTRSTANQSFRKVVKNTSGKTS

[25] = molecular target: Dual specificity tyrosine-phosphorylation-regulated kinase 1A (Homo sapiens) (UniProt Q13627); test: Inhibition of DYRK1a (unknown origin) at 0.164 uM relative to control
[26] = molecular target: Protein kinase C theta type (Homo sapiens) (UniProt Q04759); test: Inhibition of PKC-theta (unknown origin) at 0.164 uM relative to control
[27] = molecular target: Epidermal growth factor receptor (Homo sapiens) (UniProt P00533); test: Inhibition of EGFR (unknown origin) at 0.45 uM relative to control
[28] = molecular target: T2, Protein kinase C iota type (Homo sapiens); test: Inhibition of PKC-iota (unknown origin) at 0.45 uM relative to control
[29] = molecular target: RAC-beta serine/threonine-protein kinase (Homo sapiens) (UniProt P31751); test: Inhibition of AKT2 (unknown origin) at 0.45 uM relative to control

inhibition [1]: 6.3%
inhibition [2]: 2.3%
inhibition [3]: -5%
inhibition [4]: 0.7%
inhibition [6]: 26.7%
inhibition [7]: -3%
inhibition [8]: -3.3%
inhibition [9]: -3%
inhibition [10]: 1.7%
inhibition [11]: 1.3%
inhibition [12]: 51%
inhibition [13]: 21.3%
inhibition [14]: 3.3%
inhibition [15]: 1%
Compound: Cc1[nH]nc(C2CC2)c1-c1ccc2c(-c3ccc(N4CCN(C)CC4)nc3)n[nH]c2c1
inhibition [5]: -2%

inhibition [16]: 11.7%
inhibition [17]: 8%
inhibition [18]: 3%
inhibition [19]: 5.3%
inhibition [20]: 2.7%
inhibition [21]: 1.3%
inhibition [22]: -2.3%
inhibition [23]: 1.7%
inhibition [24]: -0.3%
inhibition [25]: 3.3%
inhibition [26]: 7%
Compound: COC(=O)Nc1cc(-c2c(C3CC3)n[nH]c2C)cc2[nH]ncc12

inhibition [27]: -6%
inhibition [28]: -6.7%
inhibition [29]: -2%
Compound: Cc1n[nH]c(C)c1-c1ccc2c(NC(=O)c3ccc(N4CCN(C)CC4)cc3)n[nH]c2c1
